The results in this text go back to patent US12516038B2, “Inhibitors of antigen presentation by HLA-DR” (Janssen Pharmaceutica NV, priority 2020, dated 2026).

One assay has as its target HLA-DRB1*0401 (Homo sapiens (Human), UniProt P01903+P01911, A100K/A169T/DEL228-266/F76Y/I96L/K127E/L162R/M171V/N62H/P40V/Q125Y/R42H/S133A/S149N/S66Y/V115G/V209L/W38E). Briefly: HLA-DR4 HTRF assay. Particulars: inhibition of loading of Alexa Fluor 647-labeled Cit-CII peptide onto HLA-DR4 (CLIP cleaved). The format is binding. A digest of the protocol: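 HLA-DRB1*04:01 construct (α/β fused to human Fc, CLIP pre-cleaved by HRV3C overnight at 4° C) at 3 nM was preincubated 45 min with compound and 1 nM anti-Fc-Tb donor, then 40 nM Alexa647-Cit-CII1236-1249 peptide added. After 90 min at 37° C, the 665/620 nm HTRF ratio gave % inhibition; IC50 by nonlinear regression.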

The subject of assay [1] is human peripheral blood CD4+ helper T cells. Description: Pan-CD4+ T cell activation (off-target assay). The note with it: Homo sapiens, T-cell, 24 h, anti-CD3/anti-CD28 stimulation, IL-2 production by ELISA. It counts as cell-based. The text has this: The counter-screening was made through an HLA-DR-independent assay (Pan-CD4+ T cell activation assay), i.e., TCR-stimulated pan-T cell activation assay, and consists of activating T cell directly with agonistic antibody targeting the T cell receptor. The lack of inhibition in the counter-screening assay reflects that the inhibition of T cell activation in the HLA-DR4 restricted peptide-specific T cell based assay with the small molecule inhibitors is due to impaired antigen presentation on HLA-DR to the T cell and not due to a direct inhibition of the T cell function by an off-target mechanism (i.e., independently of targeting HLA-DR).
Pan-CD4+ T Cell Activation
Compounds were tested using a pan-T cell activation assay. In this assay, anti-human CD3 antibody (BD Pharmingen #55336) pre-coated at 1 μg/mL to a 96-well assay plate and 1 μg/ml soluble anti-human CD28 (EBioscience #16-0289-85) antibody were used for activating human peripheral blood CD4+ helper T cells (no HLA-DR-expressing APC were present in this assay format), in the presence of compounds (or vehicle control) for 24 hrs. IL-2 production was measured in the culture supernatant by ELISA (Human IL-2 Duo Set ELISA #DY202 from R&D Systems).

Assay [2] relates to HLA-DR4 restricted mouse T cell hybridoma line (DR4.CII.36.8) with HLA-DRB1*04:01-expressing Boleth cells. Briefly: HLA-DR4-restricted peptide-specific T cell-based assay (hybridoma assay). The note with it: Mus musculus, T-cell, 6 h, inhibition of IL-2 production, CII259-273 peptide presented by Boleth cells. A digest of the protocol: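 IC50 values derive from 4-parameter logistic fits of IL-2 AlphaLISA signal over 8-point duplicate titrations. Compound and HLA-DRB1*04:01 Boleth APCs were preincubated 1 h, 37° C., before adding CII259-273-restricted DR4.CII.36.8 hybridoma cells with peptide for 6 h at 37° C., in DMEM/1% FCS.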

SMILES strings stand for the structures. A value given as a limit tells only on which side of the number the result lay.

As to `O=C1CCOc2cc(O[C@@H](c3ccncc3)c3ccc(F)cc3)ccc21` (single isomer, unassigned) [Example 3a, (*R)-7-((4-Fluorophenyl)(pyridin-4-yl)methoxy)chroman-4-one], the IC50 was found to be 1.6 µM against HLA-DRB1*0401, 15 µM in assay [1] and 4.2 µM in assay [2].
For the molecule `O=C1CCOc2cc(O[C@H](c3ccncc3)c3ccc(F)cc3)ccc21` (single isomer, unassigned) [Example 3b, (*S)-7-((4-Fluorophenyl)(pyridin-4-yl)methoxy)chroman-4-one], the IC50 is 1.3 µM at HLA-DRB1*0401, more than 15 µM in assay [1] and 2.1 µM in assay [2].
As for `COc1ccc(COc2cccc([C@H](Oc3ccc4c(c3)OCCC4=O)c3ccncc3)c2)cc1` (single isomer, unassigned) [Example 4a, (*R)-7-((3-((4-Methoxybenzyl)oxy)phenyl)(pyridin-4-yl)methoxy)chroman-4-one], the figures for the half-maximal inhibitory concentration (IC50) (on HLA-DRB1*0401; in assay [1]; in assay [2]) were 6.9 µM, 7.8 µM and 2.9 µM, respectively.
On to `COc1ccc(COc2cccc([C@@H](Oc3ccc4c(c3)OCCC4=O)c3ccncc3)c2)cc1` (single isomer, unassigned) [Example 4b, (*S)-7-((3-((4-Methoxybenzyl)oxy)phenyl)(pyridin-4-yl)methoxy)chroman-4-one], for which the figures for the IC50 (against HLA-DRB1*0401; in assay [1]; in assay [2]) were 7.9 µM, 15 µM and 2.6 µM, respectively.
Regarding `O=C1CCOc2cc(O[C@H](c3ccncc3)c3cccc(O)c3)ccc21` (single isomer, unassigned) [Example 5a, (*R)-7-((3-Hydroxyphenyl)(pyridin-4-yl)methoxy)chroman-4-one], the IC50 stood at 14 µM at HLA-DRB1*0401, 2.8 µM in assay [1] and 1.9 µM in assay [2].
For `N#Cc1ccccc1[C@H](Oc1ccc2c(c1)OCCC2=O)c1ccncc1` (single isomer, unassigned) [Example 7a, (*R)-2-(((4-Oxochroman-7-yl)oxy)(pyridin-4-yl)methyl)benzonitrile], in that order: 0.69 µM, 4.4 µM and 4.6 µM.
For `NC(=O)c1cccc([C@@H](Oc2ccc3c(c2)OCCC3=O)c2ccncc2)c1` (single isomer, unassigned) [Example 9a, (*R)-3-(((4-oxochroman-7-yl)oxy)(pyridin-4-yl)methyl)benzamide], in that order: 0.92 µM, 4.7 µM and 6.3 µM.
Turning to `NC(=O)c1cccc([C@H](Oc2ccc3c(c2)OCCC3=O)c2ccncc2)c1` (single isomer, unassigned) [Example 9b, (*S)-3-(((4-oxochroman-7-yl)oxy)(pyridin-4-yl)methyl)benzamide], the IC50 against HLA-DRB1*0401 worked out at 0.98 µM; in assay [1], 4.7 µM; in assay [2], 11 µM.
On to `N#Cc1ccc([C@@H](Oc2ccc3c(c2)OCCC3=O)c2ccncc2)cc1` (single isomer, unassigned) [Example 10a, (*R)-4-(((4-oxochroman-7-yl)oxy)(pyridin-4-yl)methyl)benzonitrile], for which the results for the IC50 (against HLA-DRB1*0401; in assay [1]; in assay [2]) were 0.95 µM, more than 15 µM and 4.9 µM, respectively.
On to `NC(=O)c1ccc([C@@H](Oc2ccc3c(c2)OCCC3=O)c2ccncc2)cc1` (single isomer, unassigned) [Example 11a, (*R)-4-(((4-oxochroman-7-yl)oxy)(pyridin-4-yl)methyl)benzamide], for which the IC50 at HLA-DRB1*0401 was 0.72 µM; in assay [1], more than 15 µM; in assay [2], 0.46 µM.
As to `NC(=O)c1ccc([C@H](Oc2ccc3c(c2)OCCC3=O)c2ccncc2)cc1` (single isomer, unassigned) [Example 11b, (*S)-4-(((4-oxochroman-7-yl)oxy)(pyridin-4-yl)methyl)benzamide], the results for the half-maximal inhibitory concentration (IC50) (at HLA-DRB1*0401; in assay [1]; in assay [2]) were 0.95 µM, more than 15 µM and 4.7 µM, respectively.
For `COc1ccc([C@@H](Oc2ccc3c(c2)OCCC3=O)c2ccncc2)cc1` (single isomer, unassigned) [Example 12a, (*R)-7-((4-Methoxyphenyl)(pyridin-4-yl)methoxy)chroman-4-one], in that order: 2 µM, 9.9 µM and 2.6 µM.
The corresponding values for `COc1ccc([C@H](Oc2ccc3c(c2)OCCC3=O)c2ccncc2)cc1` (single isomer, unassigned) [Example 12b, (*S)-7-((4-Methoxyphenyl)(pyridin-4-yl)methoxy)chroman-4-one] are 1.7 µM, more than 15 µM and 2.9 µM.
In the case of `COc1cccc([C@@H](Oc2ccc3c(c2)OCCC3=O)c2ccncc2)c1` (single isomer, unassigned) [Example 13b, (*S)-7-((3-methoxyphenyl)(pyridin-4-yl)methoxy)chroman-4-one], the IC50 against HLA-DRB1*0401 was 1.4 µM; in assay [1] it was more than 15 µM; in assay [2], 4.7 µM.
For `COc1ccccc1[C@H](Oc1ccc2c(c1)OCCC2=O)c1ccncc1` (single isomer, unassigned) [Example 14a, (*R)-7-((2-Methoxyphenyl)(pyridin-4-yl)methoxy)chroman-4-one], in that order: 1.9 µM, more than 15 µM and 8.7 µM.
The corresponding values for `Cc1cc([C@H](Oc2ccc3c(c2)OCCC3=O)c2ccc(C(N)=O)cc2)ccn1` (single isomer, unassigned) [Example 15a, (*R)-4-((2-Methylpyridin-4-yl)((4-oxochroman-7-yl)oxy)methyl)benzamide] are 0.44 µM, more than 15 µM and 0.61 µM.
For `COc1ccc(COc2ccc([C@@H](Oc3ccc4c(c3)OCCC4=O)c3ccncc3)cc2)cc1` (single isomer, unassigned) [Example 17a, (*R)-7-((4-((4-Methoxybenzyl)oxy)phenyl)(pyridin-4-yl)methoxy)chroman-4-one], in that order: 5.8 µM, 15 µM and 4.3 µM.
Consider `COc1ccc(COc2ccc([C@H](Oc3ccc4c(c3)OCCC4=O)c3ccncc3)cc2)cc1` (single isomer, unassigned) [Example 17b, (*S)-7-((4-((4-Methoxybenzyl)oxy)phenyl)(pyridin-4-yl)methoxy)chroman-4-one], for which the IC50 at HLA-DRB1*0401 turned out to be 4.9 µM; in assay [1], 4.8 µM; in assay [2] it was 7.7 µM.
With `NC(=O)c1ccc([C@H](Oc2ccc3c(c2)OCCC3=O)c2ccnc(C(F)(F)F)c2)cc1` (single isomer, unassigned) [Example 18b, (*S)-4-(((4-oxochroman-7-yl)oxy)(2-(trifluoromethyl)pyridin-4-yl)methyl)benzamide], the IC50 against HLA-DRB1*0401 turned out to be 0.95 µM; in assay [1] it was 9.9 µM; in assay [2], 12 µM.
The corresponding values for `NC(=O)c1ccc([C@@H](Oc2ccc3c(c2)OCCC3=O)c2ccncc2C(F)(F)F)cc1` (single isomer, unassigned) [Example 19a, (*R)-4-(((4-oxochroman-7-yl)oxy)(3-(trifluoromethyl)pyridin-4-yl)methyl)benzamide] are 0.82 µM, 1.8 µM and 3.6 µM.
For `NC(=O)c1ccc([C@H](Oc2ccc3c(c2)OCCC3=O)c2ccncc2C(F)(F)F)cc1` (single isomer, unassigned) [Example 19b, (*S)-4-(((4-oxochroman-7-yl)oxy)(3-(trifluoromethyl)pyridin-4-yl)methyl)benzamide], in that order: 1.2 µM, 4.7 µM and 7.6 µM.
For `NC(=O)c1ccc([C@@H](Oc2ccc3c(c2)OCCC3=O)c2ccnc3ccccc23)cc1` (single isomer, unassigned) [Example 22a, (*R)-4-(((4-oxochroman-7-yl)oxy)(quinolin-4-yl)methyl)benzamide], in that order: 1.3 µM, 4.7 µM and 1.9 µM.
`NC(=O)c1ccc([C@H](Oc2ccc3c(c2)OCCC3=O)c2ccnc3ccccc23)cc1` (single isomer, unassigned) [Example 22b, (*S)-4-(((4-oxochroman-7-yl)oxy)(quinolin-4-yl)methyl)benzamide]: the half-maximal inhibitory concentration (IC50) amounted to 1.2 µM against HLA-DRB1*0401, 15 µM in assay [1] and 2.2 µM in assay [2].
